In patent US9989535B2, “Methods and reagents for analyzing protein-protein interfaces” (Warp Drive Bio, Inc., priority 2015, dated 2018):

Legend:
PTP1BS187C lite/FKBP12 = target: T1, PTP1BS187C lite/FKBP12 (Homo sapiens, UniProt P18031+P62942, C121S/C32S/C92V/S187C); test: Ternary complex formation by SEC and SDS-PAGE; assay type: binding; conditions: SEC profile and SDS-PAGE of elution peaks
T1 construct: residues 1-293 containing C32S/C92V/C121S/S187C; made in house
Procedure: A 1:2:2 molar ratio of compound, presenter protein, and target protein are mixed together in 12.5 mM HEPES pH 7.4, 75 mM NaCl buffer containing 2% DMSO. The reaction is incubated at 37° C. for 30 min, followed by overnight incubation at room temperature. Pure complex is isolated by Size Exclusion Chromatography (SEC) purification. The reaction mixture is directly injected on a Superdex 75 column (CV 120 mL) pre-equilibrated with buffer containing 12.5 mM HEPES pH 7.4, 75 mM NaCl. Complex elutes at a higher molecular weight than unreacted target protein and presenter protein. To confirm presence of complex in the elution peak, samples are assessed by SDS-PAGE.
Experimental Protocol: A 1:3:3 molar ratio of C3-SLF, FKBP12, and PTP1BS187C lite are mixed together in 12.5 mM HEPES pH 7.4, 75 mM NaCl buffer containing 4% DMSO. The reaction is incubated at 37° C. for 30 min, followed by overnight incubation at room temperature. Pure complex is isolated by Size Exclusion Chromatography (SEC) purification. The reaction mixture is directly injected on a Superdex 75 column (CV 120 mL) pre-equilibrated with buffer containing 12.5 mM HEPES pH 7.4, 75 mM NaCl. […] To confirm the presence of PTP1BS187C lite and FKBP12 in the elution peak, samples are also assessed by SDS-PAGE. […]

KRASGTP/G12C [1] = target: T2, KRASGTP/G12C (Homo sapiens, UniProt P01116+P62942, G12C); test: Disulfide cross-linking efficiency by mass spectrometry, with or without FKBP12; assay type: binding; conditions: 2 μM KRAS, 10 μM ligand, 4 hours RT, MS
T2 construct: KRASGTP/G12C (in-house, residues 1-169); made in house
Procedure: Experimental protocol: In order to follow the kinetics of disulfide crosslinking reactions, Agilent 6230 TOF-LC/MS and Agilent 1260 HPLC instruments employing a AdvanceBio RP-mAb C4 column (2.1×100 mm, 3.5 μm) and equipped with an auto-sampler were used. HPLC grade acetonitrile and water (each containing 1.0 mM ammonium formate and 1% formic acid by volume) were used as mobile phase with the following ramp: 0.6 ml/min flow rate, water:acetonitrile=95:5 from 0.0 to 13.0 min ramping to water:acetonitrile=5:95 from 13.0 to 17.0 min. Total time=17.0 min.
All crosslinking reactions were performed in 1.5 mL amber colored glass vials equipped with 0.5 mL glass inserts. A water-soluble peptide (SEQ ID NO: 1: […]) was employed as an internal standard. Although the actual sequence of the internal standard is inconsequential, choice of amino acid residues were critical to avoid interference in the crosslinking assays. […] All reactions and standard solutions were prepared in HEPES (pH 7.4, 1.0 mM MgCl2) buffer.
Prior to every reaction, a standard curve was obtained for the individual components using a series of standard solutions (an example of standard curve analysis for FKBP12 is shown in Table 3 below). Using the data from standard curve, μmol of protein samples were plotted against the ratio of areas (sample:std) and a linear fit (y=mx+c) was employed to obtain the slope and intercept. The value of slope and intercept involved in these standard curves were accounted for during evaluation of the substrate and product concentration before and during the course of the reaction. For every substrate/product, an initial injection was followed up by a blank injection to verify presence of any residual protein/reagents. Based on this analysis the sequence of auto-sampler can be adjusted to included appropriate number of blank injections for removal of residual components, if any. The MS spectra were analyzed using Agilent MassHunter v B.07.0 software.
In a representative experiment to assess the presenter dependency of ligand cross-linking on the target protein, KRASGTP/G12C and either C3- or C4-SLF ligand were incubated in the presence or absence of FKBP12 at concentrations of 2 μM KRAS, 10 μM FKBP12, 10 μM C3- or C4-SLF for 4 hours at room temperature in 12.5 mM HEPES pH 7.4, 75 mM NaCl, 1 mM MgCl2, 3% DMSO. Analysis of the amount of KRAS undergoing disulfide cross-linking with the ligand using the method above.

KRASGTP/G12C [2] = target: T2, KRASGTP/G12C; test: Cross-linking gel shift assay (12% SDS-PAGE), with or without FKBP12; assay type: binding; conditions: 60 μM KRAS, 180 μM FKBP12, 180 μM ligand, quenched by MMTS
Procedure: In parallel to mass spectrometry analysis, cross-linking reactions with C3- or C4-SLF were subjected to gel shift assay using 12% SDS-PAGE in the presence or absence of FKBP12 at the same experimental condition described above except that cross-linking reactions were set up at higher concentrations (60 μM KRAS, 180 μM FKBP12, and 180 μM C3- or C4-SLF) and they were quenched by MMTS to terminate the reaction.

FKBP12-PTP1BS187C = target: T3, FKBP12-PTP1BS187C (Homo sapiens, UniProt P18031+P62942, C121S/C32S/C92V/S187C); test: Crystal structure of FKBP12-C3SLF-PTP1BS187C ternary complex
T3 construct: residues 1-293 containing C32S/C92V/C121S/S187C; made in house
Procedure: Experimental Protocol: […] and FKBP12 were added to PTP1B[…] lite at 3:1 molar excess in 12.5 mM HEPES pH 7.4, 75 mM NaCl buffer, 4% DMSO, and incubated 36-72 hours at 4° C. Pure complex was isolated by size exclusion chromatography on a Superdex 75 column in 12.5 mM HEPES pH 7.4 and 75 mM NaCl. Purified complex (at 15 mg/ml) was subjected to crystallization screening at 20° C. using sitting drop vapor diffusion method. Crystals were grown in a well solution containing 0.2 M Magnesium Acetate, 20% w/v PEG 3350. For data collection, crystals were transferred to a solution containing mother liquor supplemented with 25% PEG400, and then frozen in liquid nitrogen. Diffraction datasets were collected at the Advanced Photon Source (APS) and processed with the XDS program. Molecular replacement solutions were obtained using the program PHASER in the CCP4 suite, using the published structure of FKBP12 (PDB-ID 2PPN) and PTP1B (PDB-ID 2NT7) as search models. Subsequent model building and refinement were performed according to standard protocols with the software packages CCP4 and COOT.

MCL1S245C/FKBP52 = MCL1S245C/FKBP52 (Homo sapiens, UniProt Q02790+Q07820, C286S/S245C); test: Crystal structure of MCL1S245C/C3SLF/FKBP52 ternary complex; conditions: 3.0 Å
Procedure: Experimental Protocol: […] and FKBP52 were mixed with MCL1[…] lite at 3:1 molar excess in 12.5 mM HEPES pH 7.4, 75 mM NaCl buffer, 2% DMSO, and incubated 24-48 hours at 4° C. Pure complex was isolated by size exclusion chromatography on a Superdex 75 column in 12.5 mM HEPES pH 7.4 and 75 mM NaCl. Purified complex (at 15 mg/ml) was subjected to crystallization screening at 20° C. using sitting drop vapor diffusion method. Crystals were grown in a well solution containing 2.1 M Malic acid. For data collection, crystals were transferred to a solution containing mother liquor supplemented with 20% glycerol, and then flash-frozen in liquid nitrogen. 3.0 Å resolution diffraction dataset was measured at the Advanced Photon Source (APS) and processed with the XDS program. Molecular replacement solutions were obtained using the program PHASER in the CCP4 suite, using the published structure of FKBP52 (PDB-ID 1N1A) and […] (PDB-ID 3MK8) as search models. Subsequent model building and refinement were performed according to standard protocols with the software packages CCP4 and COOT.

Chain of MCL1S245C/FKBP52 (Q07820 172-327 S245C/C286S): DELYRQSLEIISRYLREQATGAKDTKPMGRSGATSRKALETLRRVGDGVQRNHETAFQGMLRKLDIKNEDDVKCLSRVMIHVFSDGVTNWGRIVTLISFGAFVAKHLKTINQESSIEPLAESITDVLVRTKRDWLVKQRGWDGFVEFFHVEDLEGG
Chain of MCL1S245C/FKBP52 (Q02790 1-140): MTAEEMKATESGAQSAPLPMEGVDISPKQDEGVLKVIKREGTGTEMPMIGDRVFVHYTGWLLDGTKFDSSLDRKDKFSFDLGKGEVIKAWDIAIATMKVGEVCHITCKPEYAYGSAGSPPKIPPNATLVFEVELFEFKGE
T3 sequence (P18031 1-293 C32S/C92V/C121S/S187C limits assumed): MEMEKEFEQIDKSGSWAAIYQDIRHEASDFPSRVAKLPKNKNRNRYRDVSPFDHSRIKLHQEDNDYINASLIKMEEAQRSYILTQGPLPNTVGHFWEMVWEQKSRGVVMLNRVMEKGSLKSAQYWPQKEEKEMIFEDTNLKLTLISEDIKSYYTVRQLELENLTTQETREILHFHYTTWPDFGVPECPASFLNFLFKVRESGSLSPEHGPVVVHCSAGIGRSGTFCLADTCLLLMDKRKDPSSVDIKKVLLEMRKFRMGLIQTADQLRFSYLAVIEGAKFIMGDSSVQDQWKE
T3 sequence (P62942 whole entry, the tested form may be a part): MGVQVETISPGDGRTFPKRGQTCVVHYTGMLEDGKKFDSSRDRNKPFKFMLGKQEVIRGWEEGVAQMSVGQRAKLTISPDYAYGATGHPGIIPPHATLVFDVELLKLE
T1 sequence (P18031 1-293 C32S/C92V/C121S/S187C limits assumed): as the sequence (P18031 1-293 C32S/C92V/C121S/S187C limits assumed) above
T1 sequence (P62942 whole entry, the tested form may be a part): as the sequence (P62942 whole entry, the tested form may be a part) above

CCC(C)(C)C(=O)C(=O)N1CCCC[C@H]1C(=O)O[C@H](CCc1ccc(OC)c(OC)c1)c1cccc(NC(=O)CCSSc2ccccn2)c1 [Compound C3-SLF, (R)-3-(3,4-dimethoxyphenyl)-1-(3-(3-(pyridin-2-yldisulfanyl)propanamido)phenyl)propyl (S)-1-(3,3-dimethyl-2-oxopentanoyl)piperidine-2-carboxylate]
Formation of PTP1BS187C lite/C3-SLF/FKBP12 complex (PTP1BS187C lite/FKBP12): confirm the formation | % × link to KRAS (KRASGTP/G12C [1]; FKBP12 absent (−)): 9.6% | % × link to KRAS (KRASGTP/G12C [1]; FKBP12 present (+) 10 μM): 47.5% | Ligand cross-linking efficiency in the presence of FKBP12, gel shift (KRASGTP/G12C [2]): boosted significantly | Buried surface area of ligand (FKBP12-PTP1BS187C): 615 Å^2 | Buried surface area of the complex contributed by ligand (MCL1S245C/FKBP52): 606 Å2
